Counter-ions that a name gives are not always drawn.
Experiments:
[1] = biological target: T1, dopamine D2S receptor (human recombinant expressed in CHO cells) (Homo sapiens, UniProt P14416); test: Dopamine, D2S (human recombinant) radioligand binding assay, [3H]Spiperone; settings: for IC50: six concentrations 0.5-1000 nM
T1 construct: expressed in transfected cells; host or cells: CHO cells
Experimental: The piperazine derivatives comprising Formulae (I)-(X) described in this invention were tested in the in vitro pharmacological assays to evaluate their activities for dopamine, D2S, serotonin, 5-HT1A and serotonin, 5-HT2A receptors. The in vitro assay protocols and literature references are described herein. • Dopamine, D2S (human recombinant) binding assay: • Materials and Methods: [table] The reactions were carried out in 50 mM TRIS-Hal (pH 7.4) containing 120 mM NaCl, 5 mM KCl, 5 mM MgCl2, 1 mM EDTA for 60 minutes at 25 C. The reaction was terminated by rapid vacuum filtration onto glass fiber filters. Radioactivity trapped onto the filters was determined and compared to control values in order to ascertain any interactions of test compounds with the cloned dopamine—D2 short binding site (Literature Reference: Jarvis, K. R. et al. Journal of Receptor Research 1993, 13(1-4), 573-590; Gundlach, A. L. et al. Life Sciences 1984, 35, 1981-1988.) • Serotonin, 5HT1A (human recombinant) binding assay: • Materials and Methods: The radioligand binding assays for dopamine-D2S, serotonin-5HT1A and serotonin-5HT2A were carried out at six different concentrations and the test concentrations were 0.5 nM, 1 nM, 10 nm, 100 nM, 300 nM and 1000 nM.

[2] = biological target: T2, serotonin 5-HT1A receptor (human recombinant expressed in HEK-293 cells) (Homo sapiens, UniProt P08908); test: Serotonin, 5HT1A (human recombinant) radioligand binding assay, [3H]-8-OH-DPAT; settings: human recombinant in HEK-293 cells; for IC50: six concentrations 0.5-1000 nM
T2 construct: expressed in transfected cells; host or cells: HEK-293 cells (from the result head)
T2 sequence (P08908 1-422): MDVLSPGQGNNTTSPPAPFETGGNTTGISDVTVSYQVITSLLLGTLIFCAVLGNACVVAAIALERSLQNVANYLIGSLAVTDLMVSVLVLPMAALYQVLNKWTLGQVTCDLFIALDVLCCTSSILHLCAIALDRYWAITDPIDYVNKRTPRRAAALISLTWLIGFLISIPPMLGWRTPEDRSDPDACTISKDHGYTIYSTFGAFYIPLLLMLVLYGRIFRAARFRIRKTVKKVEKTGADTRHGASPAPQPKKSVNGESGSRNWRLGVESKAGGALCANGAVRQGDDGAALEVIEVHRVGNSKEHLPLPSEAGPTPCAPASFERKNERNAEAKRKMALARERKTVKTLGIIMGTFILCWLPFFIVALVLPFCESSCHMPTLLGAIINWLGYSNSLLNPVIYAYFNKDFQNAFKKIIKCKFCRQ
Experimental: (§1) The reactions were carried out in 50 mM TRIS-Hal (pH 7.4) containing 10 mM MgSO4, 0.5 mM EDTA and 0.1% Ascorbic acid at room temperature for 1 hour. The reaction was terminated by rapid vacuum filtration onto glass fiber filters. Radioactivity trapped onto the filters was determined and compared to control values in order to ascertain any interactions of test compounds with the cloned serotonin—5HT1A binding site (Literature Reference: Hoyer, D. et al. Eur. Journal Pharmacol. 1985, 118, 13-23; Schoeffier, P. and Hoyer, D. Naunyn-Schmiedeberg's Arch. Pharmac. 1989, 340, 135-138) • Serotonin, 5HT2A (human) binding assay: • Materials and Methods: • Receptor Source: Human Cortex • Radioligand: [^3H]-Ketanserin (60-90 Ci/mmol) • Control Compound: Ketanserin • Incubation Conditions:
(§2) The radioligand binding assays for dopamine-D2S, serotonin-5HT1A and serotonin-5HT2A were carried out at six different concentrations and the test concentrations were 0.5 nM, 1 nM, 10 nm, 100 nM, 300 nM and 1000 nM.

[3] = biological target: T3, serotonin 5-HT2A receptor (Human Cortex) (Homo sapiens, UniProt P28223); test: Serotonin, 5HT2A (human) radioligand binding assay, [3H]-Ketanserin; settings: for IC50: six concentrations 0.5-1000 nM
T3 construct: Receptor Source: Human Cortex; from tissue; host or cells: human cortex
T3 sequence (P28223 whole entry): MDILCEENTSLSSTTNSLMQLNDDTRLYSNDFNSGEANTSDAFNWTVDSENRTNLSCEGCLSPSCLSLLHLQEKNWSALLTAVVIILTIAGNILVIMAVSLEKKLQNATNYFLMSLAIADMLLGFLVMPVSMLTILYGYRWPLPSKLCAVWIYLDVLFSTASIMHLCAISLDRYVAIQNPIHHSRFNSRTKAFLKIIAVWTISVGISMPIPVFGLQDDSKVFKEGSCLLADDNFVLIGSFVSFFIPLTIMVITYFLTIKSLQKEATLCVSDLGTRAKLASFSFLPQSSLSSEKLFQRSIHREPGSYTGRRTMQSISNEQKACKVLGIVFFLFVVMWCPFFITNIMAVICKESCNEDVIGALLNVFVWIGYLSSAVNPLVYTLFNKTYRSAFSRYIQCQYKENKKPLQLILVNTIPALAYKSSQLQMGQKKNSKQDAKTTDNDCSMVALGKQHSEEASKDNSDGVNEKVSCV
Experimental: as §1
The reactions were carried out in 50 mM TRIS-Hal (pH 7.6) at room temperature for 90 minutes. The reaction was terminated by rapid vacuum filtration onto glass fiber filters. Radioactivity trapped onto the filters was determined and compared to control values in order to ascertain any interactions of test compounds with the serotonin—5HT2A binding site (Literature Reference: Leysen, J. E. et al. Mol. Pharmacol. 1982, 21, 301-314; Martin, G. R. and Humphrey, P. P. A. Neuropharmacol. 1994, 33(3/4), 261-273.)
as §2

T1 sequence (P14416 1-414 isoform P14416-2): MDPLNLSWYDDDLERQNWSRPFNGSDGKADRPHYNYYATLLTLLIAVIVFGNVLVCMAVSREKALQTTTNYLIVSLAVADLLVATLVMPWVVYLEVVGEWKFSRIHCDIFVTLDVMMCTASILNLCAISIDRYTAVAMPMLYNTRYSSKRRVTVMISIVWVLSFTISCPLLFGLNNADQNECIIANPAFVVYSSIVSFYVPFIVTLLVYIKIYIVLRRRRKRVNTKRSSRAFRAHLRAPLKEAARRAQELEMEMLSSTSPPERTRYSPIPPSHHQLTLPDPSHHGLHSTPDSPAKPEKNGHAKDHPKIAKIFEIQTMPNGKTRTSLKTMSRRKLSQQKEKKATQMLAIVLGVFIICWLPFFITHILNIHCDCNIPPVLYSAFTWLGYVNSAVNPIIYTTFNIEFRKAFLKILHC

SMILES | Ki [1] [nM] | IC50 [1] [nM] | Ki [2] [nM] | IC50 [2] [nM] | Ki [3] [nM] | IC50 [3] [nM]
O=C(CCCN1CCN(c2cccc(Cl)c2Cl)CC1)Nc1ccc2c(c1)NC(=O)CO2 [Compound 5b, 4-(4-(2,3-Dichlorophenyl)piperazin-1-yl)-N-(3-oxo-3,4-dihydro-2H-benzo[b][1,4]oxazin-6-yl)butanamide hydrochloride] | 2.89 | 7.89 | 11.4 | 18.5 | 57.4 | 110
CCOC(=O)CCCOc1ccccc1N1CCN(CCCCOc2ccc3c(c2)NC(=O)CO3)CC1 [Compound 18a, Ethyl 4-(2-(4-(4-(3-oxo-3,4-dihydro-2H-benzo[b][1,4]oxazin-6-yloxy)butyl)piperazin-1-yl)phenoxy)butanoate hydrochloride] | 6.77 | 19.2 | 10.2 | 16.7 | 282 | 572
CCOC(=O)C(C)(C)CCOc1ccccc1N1CCN(CCCCOc2ccc3c(c2)NC(=O)CO3)CC1 [Compound 18b, Ethyl 2,2-dimethyl-4-(2-(4-(4-(3-oxo-3,4-dihydro-2H-benzo[b][1,4]oxazin-6-yloxy)butyl)piperazin-1-yl)phenoxy)butanoate hydrochloride] | 50.2 | 147 | 3.3 | 5.44 | 340 | 622
CCOC(=O)C(C)(C)Oc1ccccc1N1CCN(CCCCOc2ccc3c(c2)NC(=O)CO3)CC1 [Compound 18c, Ethyl 2-methyl-2-(2-(4-(4-(3-oxo-3,4-dihydro-2H-benzo[b][1,4]oxazin-6-yloxy)butyl)piperazin-1-yl)phenoxy)propanoate hydrochloride] | 2.09 | 5.93 | 2.67 | 4.41 | 185 | 376
CCOC(=O)CN1C(=O)COc2ccc(OCCCCN3CCN(c4cccc(Cl)c4Cl)CC3)cc21 [Compound 28c, Ethyl 2-(6-(4-(4-(2,3-dichlorophenyl)piperazin-1-yl)butoxy)-3-oxo-2H-benzo[b][1,4]oxazin-4(3H)-yl)acetate hydrochloride] | 15.5 | 49.4 | 2.96 | 4.45 | 106 | 237
